# Data: paper PMC11109052, “Metabolism characterization and toxicity of N-hydap, a marine candidate drug for lung cancer therapy by LC–MS method” (Natural Products and Bioprospecting, 2024)
# Experiments:
# [1] = Distribution studies in mice organs; assay type: in vivo; conditions: 30 min and 4 h
# Description: The heart, liver, spleen, lungs and kidneys were removed from mice after administering a dose of 5 mg/kg through oral gavage and 2 mg/kg through tail vein injection at 30 min and 240 min, followed by homogenization with normal saline. The resulting homogenate was centrifuged at 4 °C, 13,000 rpm for 20 min, and the supernatant was then mixed with the internal standard by vortexing. The mixtures were centrifuged at 4 °C, 13,000 rpm for 15 min. The resulting supernatant was then subjected to vacuum drying for 3–4 h. Lastly, the dried powder was reconstituted with a mixture of 50% methanol and water, and then centrifuged for LC–MS testing.
# Cyp2e1 = assay: Real-time PCR mRNA level after 7 days gavage: Cyp2e1; assay type: in vivo, mice; set-up: key to CYP2E1 mNA expression: ↑: up-regulation; ↓: down-regulation; –: no change; conditions: for mRNA levels of Cyp2e1: mice, 2, 5, 10 mg/kg p.o. 7 days
# Description: (§1) Mice were randomly divided into four groups, with eight animals in each group. The mice received oral pretreatment with N-hydap for 7 days at doses of 2, 5, and 10 mg/kg/day, which were considered as the low dose, medium dose, and high dose, respectively. Correspondingly, the control group received PBS. On the 8th day, the liver and kidneys were removed, and organs from eight mice per group were combined to prepare MLMs and MKMs using the detailed procedures above. Subsequently, we determined the activity of CYP and UGT enzymes by specific substrate metabolized with MLMs (0.5 mg/mL) and MKMs (0.2 mg/mL) in vitro. Specifically, the following selective substrates were used for the respective enzymes: PH (1 μM) for CYP1A2, DIC (1 μM) for CYP2C9, MP (90 μM) for CYP2C19, DM (1 μM) for CYP2D6, CZX (10 μM) for CYP2E1, Tes (1 μM) for CYP3A4, SN38 (1 μM) for UGT1A1, CACD (100 μM) for UGT1A3, Sero (20 μM) for UGT1A6, and Prop (1 μM) for UGT1A9. All substrates were dissolved in methanol or DMSO. The incubation procedure was carried out as mentioned above, and the reaction was terminated with VER (20 ng/mL) in ESI+ mode and CLP (200 ng/mL) in ESI− mode. In the ex vivo experiments, the activity of enzymes was measured by quantifying the production of various metabolites (nM/mg protein/min). The metabolites and their corresponding enzymes are as follows: APAP from PH, 4-OH-DIC from DIC, 4-OH-MP from MP, DXO from DM, 6-OH-CZX from CZX, 6-OH-Tes from Tes, SN38-G from SN38, CACD-G from CACD, Sero-G from Sero, Prop-G from Prop. The measurements were performed using multiple reaction monitoring (MRM) transitions, which are specific mass spectrometry transitions used for quantification. The optimized parameters for each metabolite, such as declustering potential and collision energy, were described in Supplementary Table 1. All experiments were conducted in triplicate, to ensure accuracy and reproducibility.
# Total RNA from liver and kidney samples taken after 7 days of N-hydap gavage was extracted using the Animal Total RNA Isolation Kit (Foregene, Chengdu, Sichuan, China) following the manufacturer’s instructions. The concentrations of total RNA were determined by a nucleic acid concentration tester at 260/280 nm. A HiScript III RT SuperMix for qPCR (+ gDNA wiper) (Vazyme, Nanjing, Jiangsu, China) was used to measure the concentration of the synthesized cDNA. ChamQ SYBR qPCR Master Mix (Vazyme, Nanjing, Jiangsu, China) and detection were performed using a Light Cycler 480 II (ROCHE, Basel, Switzerland). Real-time PCR was used to analyze the relative mRNA levels of Cyp1a2, Cyp2b10, Cyp2c39, Cyp2d22, Cyp2e1, Cyp3a11, Ugt1a1, Ugt1a6a and Ugt1a9 (human homologs: CYP1A2, CYP2B6, CYP2C19, CYP2D6, CYP2E1, CYP3A4, UGT1A1, UGT1A6, and UGT1A9) in the liver, kidneys, and intestines. […]
# Cyp1a2 = assay: Real-time PCR mRNA level after 7 days gavage: Cyp1a2; assay type: in vivo; conditions: mice, 2, 5, 10 mg/kg p.o. 7 days; kidneys
# Description: (§2) Mice were randomly divided into four groups, with eight animals in each group. The mice received oral pretreatment with N-hydap for 7 days at doses of 2, 5, and 10 mg/kg/day, which were considered as the low dose, medium dose, and high dose, respectively. Correspondingly, the control group received PBS. On the 8th day, the liver and kidneys were removed, and organs from eight mice per group were combined to prepare MLMs and MKMs using the detailed procedures above. Subsequently, we determined the activity of CYP and UGT enzymes by specific substrate metabolized with MLMs (0.5 mg/mL) and MKMs (0.2 mg/mL) in vitro. […] In the ex vivo experiments, the activity of enzymes was measured by quantifying the production of various metabolites (nM/mg protein/min). […] The measurements were performed using multiple reaction monitoring (MRM) transitions, which are specific mass spectrometry transitions used for quantification. […]
# (§3) Total RNA from liver and kidney samples taken after 7 days of N-hydap gavage was extracted using the Animal Total RNA Isolation Kit (Foregene, Chengdu, Sichuan, China) following the manufacturer’s instructions. The concentrations of total RNA were determined by a nucleic acid concentration tester at 260/280 nm. […]
# CYP2D6 = assay: DME activity ex vivo in MLMs and MKMs: CYP2D6 (DXO from DM); set-up: species or system mice; key to CYP2D6 Enzymatic activity: ↑: up-regulation; ↓: down-regulation; –: no change
# Description: as §1
# Cyp2b10 = assay: Real-time PCR mRNA level after 7 days gavage: Cyp2b10; assay type: in vivo; conditions: mice, 2, 5, 10 mg/kg p.o. 7 days
# Description: as §2, §3
compound,measurement,setting,value
"CC1CCC2C(C=CC(C)C2C(=O)c2c(O)c(C3(O)CCC(O)C4OC43)cn(O)c2=O)C1 (stereo not drawn) [N-hydap, N-Hydroxyapiosporamide]","total distribution ratio, heart",[1]; oral 5 mg/kg,13.35%
same,"total distribution ratio, kidneys",[1]; oral 5 mg/kg,25.50%
same,"total distribution ratio, liver",[1]; oral 5 mg/kg,11.45%
same,"total distribution ratio, lungs",[1]; oral 5 mg/kg,26.26%
same,"total distribution ratio, spleen",[1]; oral 5 mg/kg,23.44%
same,"total distribution ratio, heart",[1]; tail vein injection 2 mg/kg,10.57%
same,"total distribution ratio, kidneys",[1]; tail vein injection 2 mg/kg,14.08%
same,"total distribution ratio, liver",[1]; tail vein injection 2 mg/kg,37.61%
same,"total distribution ratio, lungs",[1]; tail vein injection 2 mg/kg,23.17%
same,"total distribution ratio, spleen",[1]; tail vein injection 2 mg/kg,14.57%
same,CYP2E1 mNA expression,Cyp2e1; Kidney,↑
same,CYP2E1 mNA expression,Cyp2e1; Liver,–
same,mRNA levels of Cyp2e1,Cyp2e1; intestines,slight reduction
same,mRNA levels of Cyp2e1,Cyp2e1; kidney,modest increase
same,decrease of mRNA levels of Cyp1a2,Cyp1a2,48%
same,CYP2D6 Enzymatic activity,CYP2D6; Kidney,↑
same,CYP2D6 Enzymatic activity,CYP2D6; Liver,↓
same,"CYP2D6 inhibitor, experimental results",CYP2D6; Table 4 experimental column,Inhibition in the liver
same,reduction of formation rate of DXO vs control,CYP2D6; liver microsomes of mice pretreated 7 days p.o.,54%
same,mRNA levels of Cyp2b10,Cyp2b10; kidneys,slight reduction
same,decrease of mRNA levels of Cyp2b10,Cyp2b10; liver,35%
